Measurements taken from ChEMBL document CHEMBL3508140 (2016).

Tests used:
Homo sapiens [1] = species on record: Homo sapiens; test: Binding of 14C-epirubicin at 100 ng.ml-1 concentration to plasma protein of man; type: cell-free; design: gender
Homo sapiens [2] = species on record: Homo sapiens; test: Binding of 14C-epirubicin at 500 ng.ml-1 concentration to plasma protein of man; type: cell-free; design: gender
Homo sapiens [3] = species on record: Homo sapiens; test: Binding of 14C-epirubicin at 1000 ng.ml-1 concentration to plasma protein of man; type: cell-free; design: gender
Mus musculus [4] = species on record: Mus musculus; test: Binding of 14C-epirubicin at 20 ng.ml-1 concentration to plasma protein of mouse; type: cell-free; conditions: CD-1
Mus musculus [5] = species on record: Mus musculus; test: Binding of 14C-epirubicin at 100 ng.ml-1 concentration to plasma protein of mouse; type: cell-free; conditions: CD-1
Mus musculus [6] = species on record: Mus musculus; test: Binding of 14C-epirubicin at 500 ng.ml-1 concentration to plasma protein of mouse; type: cell-free; conditions: CD-1
Mus musculus [7] = species on record: Mus musculus; test: Binding of 14C-epirubicin at 1000 ng.ml-1 concentration to plasma protein of mouse; type: cell-free; conditions: CD-1
Rattus norvegicus [8] = species on record: Rattus norvegicus; test: Binding of 14C-epirubicin at 20 ng.ml-1 concentration to plasma protein of rat; type: cell-free; conditions: SD
Rattus norvegicus [9] = species on record: Rattus norvegicus; test: Binding of 14C-epirubicin at 100 ng.ml-1 concentration to plasma protein of rat; type: cell-free; conditions: SD
Rattus norvegicus [10] = species on record: Rattus norvegicus; test: Binding of 14C-epirubicin at 500 ng.ml-1 concentration to plasma protein of rat; type: cell-free; conditions: SD
Rattus norvegicus [11] = species on record: Rattus norvegicus; test: Binding of 14C-epirubicin at 1000 ng.ml-1 concentration to plasma protein of rat; type: cell-free; conditions: SD
Oryctolagus cuniculus [12] = species on record: Oryctolagus cuniculus; test: Binding of 14C-epirubicin at 20 ng.ml-1 concentration to plasma protein of rabbit; type: cell-free; conditions: New Zealand White
Oryctolagus cuniculus [13] = species on record: Oryctolagus cuniculus; test: Binding of 14C-epirubicin at 100 ng.ml-1 concentration to plasma protein of rabbit; type: cell-free; conditions: New Zealand White
Oryctolagus cuniculus [14] = species on record: Oryctolagus cuniculus; test: Binding of 14C-epirubicin at 500 ng.ml-1 concentration to plasma protein of rabbit; type: cell-free; conditions: New Zealand White
Oryctolagus cuniculus [15] = species on record: Oryctolagus cuniculus; test: Binding of 14C-epirubicin at 1000 ng.ml-1 concentration to plasma protein of rabbit; type: cell-free; conditions: New Zealand White
Canis lupus familiaris [16] = species on record: Canis lupus familiaris; test: Binding of 14C-epirubicin at 20 ng.ml-1 concentration to plasma protein of dog; type: cell-free; conditions: Beagle
Canis lupus familiaris [17] = species on record: Canis lupus familiaris; test: Binding of 14C-epirubicin at 100 ng.ml-1 concentration to plasma protein of dog; type: cell-free; conditions: Beagle
Canis lupus familiaris [18] = species on record: Canis lupus familiaris; test: Binding of 14C-epirubicin at 500 ng.ml-1 concentration to plasma protein of dog; type: cell-free; conditions: Beagle
Canis lupus familiaris [19] = species on record: Canis lupus familiaris; test: Binding of 14C-epirubicin at 1000 ng.ml-1 concentration to plasma protein of dog; type: cell-free; conditions: Beagle
Homo sapiens [20] = species on record: Homo sapiens; test: Binding of epirubicin at 20-1000 ng.ml-1 concentration to plasma protein of human; type: cell-free
Homo sapiens [21] = species on record: Homo sapiens; test: Binding of epirubicin to plasma protein of human; type: cell-free
Rattus norvegicus [22] = species on record: Rattus norvegicus; test: Binding of 14C-epirubicin at 0.164 ug-ml-1 concentration to plasma protein of rat; type: organism-based; design: conc 0.164 ug.ml-1, dosed compound id 2.46808e+06, dosed compound name, sampling time 30 min; conditions: SD, at 0.164 µg/mL
Rattus norvegicus [23] = species on record: Rattus norvegicus; test: Binding of 14C-epirubicin at 0.077 ug-ml-1 concentration to plasma protein of rat; type: organism-based; design: conc 0.077 ug.ml-1, dosed compound id 2.46808e+06, dosed compound name, sampling time 6 h; conditions: SD, at 0.077 µg/mL
Rattus norvegicus [24] = species on record: Rattus norvegicus; test: Binding of 14C-epirubicin at 0.048 ug-ml-1 concentration to plasma protein of rat; type: organism-based; design: conc 0.048 ug.ml-1, dosed compound id 2.46808e+06, dosed compound name, sampling time 24 h; conditions: SD, at 0.048 µg/mL
Rattus norvegicus [25] = species on record: Rattus norvegicus; test: Binding of 14C-epirubicin at 0.056 ug-ml-1 concentration to plasma protein of rat; type: cell-free; design: conc 0.056 ug.ml-1; conditions: SD, at 0.056 µg/mL
Rattus norvegicus [26] = species on record: Rattus norvegicus; test: Binding of 14C-epirubicin at 0.223 ug-ml-1 concentration to plasma protein of rat; type: cell-free; design: conc 0.223 ug.ml-1; conditions: SD, at 0.223 µg/mL
Rattus norvegicus [27] = species on record: Rattus norvegicus; test: Binding of 14C-epirubicin at 1.081 ug-ml-1 concentration to plasma protein of rat; type: cell-free; design: conc 1.081 ug.ml-1; conditions: SD, at 1.081 µg/mL
[28] = Terminal half-life of carminomycin following intravenous carminomycin at 1.0 mg.Kg-1 dose in dog; type: ADME, organism-based, Canis lupus familiaris; design: dose 1 mg.Kg-1, dosed compound id 2.46809e+06, dosed compound name Carminomycin, route intravenous; conditions: Beagle, plasma
[29] = Volume of distribution of carminomycin following intravenous carminomycin at 1.0 mg.Kg-1 dose in dog; type: ADME, organism-based, Canis lupus familiaris; design: dose 1 mg.Kg-1, dosed compound id 2.46809e+06, dosed compound name Carminomycin, route intravenous; conditions: Beagle, plasma
[30] = Plasma clearance of carminomycin following intravenous carminomycin at 1.0 mg.Kg-1 dose in dog; type: ADME, organism-based, Canis lupus familiaris; design: dose 1 mg.Kg-1, dosed compound id 2.46809e+06, dosed compound name Carminomycin, route intravenous; conditions: Beagle, read-out: Clp
[31] = Terminal half-life of daunorubicin following intravenous daunorubicin at 1.2 mg.Kg-1 dose in dog; type: ADME, organism-based, Canis lupus familiaris; design: dose 1.2 mg.Kg-1, dosed compound id 2.46809e+06, dosed compound name Daunorubicin, route intravenous; conditions: Beagle, plasma
[32] = Volume of distribution of daunorubicin following intravenous daunorubicin at 1.2 mg.Kg-1 dose in dog; type: ADME, organism-based, Canis lupus familiaris; design: dose 1.2 mg.Kg-1, dosed compound id 2.46809e+06, dosed compound name Daunorubicin, route intravenous; conditions: Beagle, plasma
[33] = Plasma clearance of daunorubicin following intravenous daunorubicin at 1.2 mg.Kg-1 dose in dog; type: ADME, organism-based, Canis lupus familiaris; design: dose 1.2 mg.Kg-1, dosed compound id 2.46809e+06, dosed compound name Daunorubicin, route intravenous; conditions: Beagle, read-out: Clp
[34] = Mean terminal half-life for ADR-529 following intravenous epirubicin at 0.5 mg.Kg-1 dose administered approximately 25 minute prior to epirubicin once weekly for four weeks in dog; type: ADME, organism-based, Canis lupus familiaris; conditions: Beagle, plasma
[35] = Mean terminal half-life for ADR-529 following intravenous epirubicin at 1 mg.Kg-1 dose administered approximately 25 minute prior to epirubicin once weekly for four weeks in dog; type: ADME, organism-based, Canis lupus familiaris; conditions: Beagle, plasma
[36] = AUC (2-8 h) of ADR-529 following intravenous ADR-529 at 10 mg.Kg-1 dose administered approximately 25 minute prior to epirubicin once weekly for four weeks in dog; type: ADME, organism-based, Canis lupus familiaris; design: dose 10 mgKg-1, dosed compound id 2.4681e+06, dosed compound name Dexrazoxane, dose level Intermediate, route intravenous, sampling time 8 h, study doses 5/10/20 mgKg-1; conditions: Beagle, plasma
[37] = AUC (2-8 h) of ADR-529 following intravenous ADR-529 at 20 mg.Kg-1 dose administered approximately 25 minute prior to epirubicin once weekly for four weeks in dog; type: ADME, organism-based, Canis lupus familiaris; design: dose 20 mgKg-1, dosed compound id 2.4681e+06, dosed compound name Dexrazoxane, dose level High, route intravenous, sampling time 8 h, study doses 5/10/20 mgKg-1; conditions: Beagle, plasma

Work on `COc1cccc2c1C(=O)c1c(O)c3c(c(O)c1C2=O)C[C@@](O)(C(=O)CO)C[C@@H]3O[C@H]1C[C@H](N)[C@@H](O)[C@H](C)O1` yielded a PPB (Homo sapiens [1]) of 78.1%, a PPB (Homo sapiens [2]) of 77.3% and a PPB (Homo sapiens [3]) of 76.8%. It also gave a PPB (Mus musculus [4]) of 76.5%, a PPB (Mus musculus [5]) of 79.9% and a PPB (Mus musculus [6]) of 80%. For the same molecule, the PPB (Mus musculus [7]) was 80.3%, the PPB (Rattus norvegicus [8]) was 79.1% and the PPB (Rattus norvegicus [9]) was 82.8%. The PPB (Rattus norvegicus [10]) was 81.3%, the PPB (Rattus norvegicus [11]) was 78.7% and the PPB (Oryctolagus cuniculus [12]) was 78.5%. The PPB (Oryctolagus cuniculus [13]) was 70.2%, the PPB (Oryctolagus cuniculus [14]) was 78.4% and the PPB (Oryctolagus cuniculus [15]) was 77.1%. The PPB (Canis lupus familiaris [16]) was 80.3%, the PPB (Canis lupus familiaris [17]) was 81.2% and the PPB (Canis lupus familiaris [18]) was 80.7%. The PPB (Canis lupus familiaris [19]) was 80.9%, the PPB (Homo sapiens [20]) was 77% and the PPB (Homo sapiens [21]) was 75%. The PPB (Rattus norvegicus [22]) was 80.7%, the PPB (Rattus norvegicus [23]) was 85.6% and the PPB (Rattus norvegicus [24]) was 88.2%. The PPB (Rattus norvegicus [25]) was 81.7%, the PPB (Rattus norvegicus [26]) was 81% and the PPB (Rattus norvegicus [27]) was 82.2%.

In the case of `CC(=O)[C@]1(O)Cc2c(O)c3c(c(O)c2[C@@H](O[C@H]2C[C@H](N)[C@H](O)[C@H](C)O2)C1)C(=O)c1c(O)cccc1C3=O` [CARUBICIN], the half-life [28] is reported as 20.3 min, the Vd [29] is reported as 98.5 L/kg and the clearance [30] is reported as 1360 mL/min.

Molecule `COc1cccc2c1C(=O)c1c(O)c3c(c(O)c1C2=O)C[C@@](O)(C(C)=O)C[C@@H]3O[C@H]1C[C@H](N)[C@H](O)[C@H](C)O1` [DAUNORUBICIN] has a half-life [31] of 5.3 min, a Vd [32] of 51 L/kg and a clearance [33] of 2030 mL/min.

`C[C@@H](CN1CC(=O)NC(=O)C1)N1CC(=O)NC(=O)C1` [DEXRAZOXANE] showed a half-life [34] of 108 min, a half-life [35] of 72 min and an AUC [36] of 2710 ng·h/mL. The AUC [37] was 5570 ng·h/mL.
